Assays:
[1] = test system: C57Bl/6J mice; experiment: Carboplatin induced thrombocytopenia model (CIT), CBC and bone marrow flow cytometry; assay type: in vivo, mouse
Text: Chemotherapy induced thrombocytopenia (CIT) was a major disease burden in cancer patients undergoing chemotherapy. CIT increases the risk of bleeding resulting in delay of chemotherapy and/or reduction in relative dose intensity (RDI), which has a major impact in overall outcomes to cancer treatment. Currently, there were no approved treatments besides platelet transfusions in severe CIT cases. Thrombopoietin (TPO) mimetics, such romiplostim, were being investigated as a possible new treatment to address CIT. Based on the ability to modulate megakaryocyte progenitors in vitro and healthy animals, murine models that replicate CIT were developed (Table 19.) To this end, the following chemotherapeutic compounds known to induced myelosuppression and thrombocytopenia in mouse and humans were selected to develop CIT models:
Carboplatin a cisplatin analog commonly used in the clinic to treat a diverse type of malignant tumors. Carboplatin works by cross-linking to DNA resulting in DNA damage and decreased tumor burden. In addition, carboplatin also leads to bone marrow myelosuppression including transient thrombocytopenia in both human and mice.
Healthy C57Bl/6J mice were treated with a single dose of carboplatin via intraperitoneal injection (60 or 100 mg/kg) (FIG. 16A). Complete blood count (CBC), specifically changes in platelet number were measured using a blood analyzer (Heska HT5) at baseline Day 0 (baseline), Day 9, Day 16 and Day 21. In addition, bone marrowwas harvested at 24 hrs, 48 hrs, 9 days and 21 days post-carboplatin injection to characterize changes in the hematopoietic stem cells compartment, and changes in megakaryocyte compartment. […] Analysis of the bone marrow hematopoietic compartments was performed using flow cytometry as described in Example 14.

[2] = test system: sickle cell patient; conditions: sickle cell patient treated with hydroxyurea; Mundee et al.; cited from earlier work
[3] = single intraperitoneal dose, 60 or 100 mg/kg, day post-injection

Row | Compound | bone marrow hematopoietic compartments (early Mkps, mature megakaryocytes) ([1]; flow cytometry 24 hrs, 48 hrs, 9 days, 21 days post-carboplatin injection, FIG. 17A, 17B) | tolerability ([1]; single intraperitoneal dose, 60 or 100 mg/kg) | blood platelets (change in platelet number) ([1]; single intraperitoneal dose, 60 or 100 mg/kg, FIG. 16B) | full recovery of platelet number [1, 3] | nadir of blood platelets [1, 3] | mean % F+ cells [2] | mean % HbF [2]
1 | N.N.O=C([O-])C1(C(=O)[O-])CCC1.[Pt+2] [carboplatin] | dynamic loss and recovery of distinct populations | tolerated the treatment | decrease of blood platelets in a dose dependent manner | ≤ 21 days | 9 days | – | –
2 | NC(=O)NO [hydroxyurea] | – | – | – | – | – | 54.1%±8.5% | 15.8%±2.0%
